For 19 molecules, IC50 results are on record in patent publication US11427567B2, “Imidazolyl pyrimidinylamine compounds as CDK2 inhibitors” (Incyte Corporation, priority 2019, dated 2022).

Bounds are passed on as bounds.

The target of the assay is CDK2/Cyclin E1 (Homo sapiens (Human), UniProt P24941). The assay can be described thus: CDK2/Cyclin E1 HTRF enzyme activity assay (Example A). Type of assay: biochemical. To be noted: 1 mM ATP. As to the method: Assays were conducted in white 384-well polystyrene plates in a final reaction volume of 8 μL. […] HTRF signals were read after 1 hour at room temperature on a PHERAstar FS plate reader (BMG Labtech). Data was analyzed with IDBS XLFit and GraphPad Prism 5.0 software using a three or four parameter dose response curve to determine IC50 for each compound.
(In general: TR-FRET usually uses a lanthanide donor and a delayed reading to cut background.)

As to `CS(=O)(=O)N1CC[C@@H](Nc2ncc(C(F)(F)F)c(-c3cn(CC(F)F)cn3)n2)[C@H](F)C1` [Example 331, 4-(1-(2,2-Difluoroethyl)-1H-imidazol-4-yl)-N-((3R,4R)-3-fluoro-1-(methylsulfonyl)piperidin-4-yl)-5-(trifluoromethyl)pyrimidin-2-amine], the concentration for half-maximal inhibition (IC50) – broadly, the concentration at which inhibition is half-maximal – was at most 50 nM.

`C[C@@H]1CN(S(=O)(=O)C2CC2)CC[C@@H]1Nc1ncc(C(F)(F)F)c(-c2cn(CC(C)(C)O)cn2)n1` [Example 332, 1-(4-(2-(((3R,4S)-1-(Cyclopropylsulfonyl)-3-methylpiperidin-4-yl)amino)-5-(trifluoromethyl)pyrimidin-4-yl)-1H-imidazol-1-yl)-2-methylpropan-2-ol] came in with a 50% inhibitory concentration (IC50) of at most 50 nM.

`CC(C)(O)Cn1cnc(-c2nc(N[C@@H]3CCN(S(=O)(=O)C4CC4)C[C@H]3F)ncc2C(F)(F)F)c1` [Example 333, 1-(4-(2-(((3R,4R)-1-(Cyclopropylsulfonyl)-3-fluoropiperidin-4-yl)amino)-5-4-yl)-1H-imidazol-1-yl)-2-methylpropan-2-ol] yielded a concentration for half-maximal inhibition (IC50) of at most 50 nM.

As to `Cn1cc(S(=O)(=O)N2CCC(Nc3ncc(C(F)(F)F)c(-c4cn(CC(F)F)cn4)n3)CC2)cn1` [Example 334, 4-(1-(2,2-Difluoroethyl)-1H-imidazol-4-yl)-N-(1-((1-methyl-1H-pyrazol-4-yl)sulfonyl)piperidin-4-yl)-5-(trifluoromethyl)pyrimidin-2-amine], the 50% inhibitory concentration (IC50) was at most 50 nM.

With `Cn1ccc(S(=O)(=O)N2CC[C@@H](Nc3ncc(C(F)(F)F)c(-c4cn(CC(C)(C)O)cn4)n3)[C@H](F)C2)n1` [Example 335, 1-(4-(2-(((3R,4R)-3-Fluoro-1-((1-methyl-1H-pyrazol-3-yl)sulfonyl)piperidin-4-yl)amino)-5-(trifluoromethyl)pyrimidin-4-yl)-1H-imidazol-1-yl)-2-methylpropan-2-ol], the half-inhibitory concentration (IC50) is at most 50 nM.

With `Cn1cc(S(=O)(=O)N2CC[C@@H](Nc3ncc(C(F)(F)F)c(-c4cn(CC(C)(C)O)cn4)n3)[C@H](F)C2)cn1` [Example 336, 1-(4-(2-(((3R,4R)-3-Fluoro-1-((1-methyl-1H-pyrazol-4-yl)sulfonyl)piperidin-4-yl)amino)-5-(trifluoromethyl)pyrimidin-4-yl)-1H-imidazol-1-yl)-2-methylpropan-2-ol], the half-inhibitory concentration (IC50) is at most 50 nM.

As for `C[C@@H]1CN(S(=O)(=O)c2cn(C)cn2)CC[C@@H]1Nc1ncc(C(F)(F)F)c(-c2cn(CC(F)F)cn2)n1` [Example 337, 4-(1-(2,2-Difluoroethyl)-1H-imidazol-4-yl)-N-((3R,4S)-3-methyl-1-((1-methyl-1H-imidazol-4-yl)sulfonyl)piperidin-4-yl)-5-(trifluoromethyl)pyrimidin-2-amine], the concentration for half-maximal inhibition (IC50) was at most 50 nM.

Molecule `CC(C)(O)Cn1cnc(-c2nc(NC3CCN(S(=O)(=O)c4ccccn4)CC3)ncc2C(F)(F)F)c1` [Example 338, 2-Methyl-1-(4-(2-((1-(pyridin-2-ylsulfonyl)piperidin-4-yl)amino)-5-(trifluoromethyl)pyrimidin-4-yl)-1H-imidazol-1-yl)propan-2-ol] displayed an IC50 of at most 50 nM.

For the molecule `CCN1CCN(Cc2ccc(-n3cnc(-c4nc(NC5CCN(S(C)(=O)=O)CC5)ncc4C(F)(F)F)c3)c(C#N)c2)CC1` [Example 339, 5-((4-Ethylpiperazin-1-yl)methyl)-2-(4-(2-((1-(methylsulfonyl)piperidin-4-yl)amino)-5-(trifluoromethyl)pyrimidin-4-yl)-1H-imidazol-1-yl)benzonitrile], the IC50 is at most 50 nM.

For `CC(C)NCc1ccc(-n2cnc(-c3nc(NC4CCN(S(C)(=O)=O)CC4)ncc3C(F)(F)F)c2)c(C#N)c1` [Example 340, 5-((Isopropylamino)methyl)-2-(4-(2-((1-(methylsulfonyl)piperidin-4-yl)amino)-5-(trifluoromethyl)pyrimidin-4-yl)-1H-imidazol-1-yl)benzonitrile], the IC50 was at most 50 nM.

As to `CCNCc1ccc(-n2cnc(-c3nc(NC4CCN(S(C)(=O)=O)CC4)ncc3C(F)(F)F)c2)c(C#N)c1` [Example 341, 5-((Ethylamino)methyl)-2-(4-(2-((1-(methylsulfonyl)piperidin-yl)amino)-5-(trifluoromethyl)pyrimidin-4-yl)-1H-imidazol-1-yl)benzonitrile], the IC50 was at most 50 nM.

Molecule `CS(=O)(=O)N1CCC(Nc2ncc(C(F)(F)F)c(-c3cn(-c4ccc(CN5CC[C@@H](O)C5)cc4C#N)cn3)n2)CC1` [Example 342, (R)-5-((3-Hydroxypyrrolidin-1-yl)methyl)-2-(4-(2-((1-(methylsulfonyl)piperidin-4-yl)amino)-5-(trifluoromethyl)pyrimidin-4-yl)-1H-imidazol-1-yl)benzonitrile] gave a half-maximal inhibitory concentration (IC50) of at most 50 nM.

`CS(=O)(=O)N1CCC(Nc2ncc(C(F)(F)F)c(-c3cn(-c4ccc(CNC5CC5)cc4C#N)cn3)n2)CC1` [Example 343, 5-((Cyclopropylamino)methyl)-2-(4-(2-((1-(methylsulfonyl)piperidin-4-yl)amino)-5-(trifluoromethyl)pyrimidin-4-yl)-1H-imidazol-1-yl)benzonitrile] had a 50% inhibitory concentration (IC50) of at most 50 nM.

Regarding `CN1CCN(Cc2ccc(-n3cnc(-c4nc(NC5CCN(S(C)(=O)=O)CC5)ncc4C(F)(F)F)c3)c(C#N)c2)CC1` [Example 344, 5-((4-Methylpiperazin-1-yl)methyl)-2-(4-(2-((1-(methylsulfonyl)piperidin-4-yl)amino)-5-(trifluoromethyl)pyrimidin-4-yl)-1H-imidazol-1-yl)benzonitrile], the concentration for half-maximal inhibition (IC50) is at most 50 nM.

In turn, `CS(=O)(=O)N1CCC(Nc2ncc(C(F)(F)F)c(-c3cn(-c4ccc(CN5CCCCC5)cc4C#N)cn3)n2)CC1` [Example 345, 2-(4-(2-((1-(Methylsulfonyl)piperidin-4-yl)amino)-5-(trifluoromethyl)pyrimidin-4-yl)-1H-imidazol-1-yl)-5-(piperidin-1-ylmethyl)benzonitrile] had a 50% inhibitory concentration (IC50) of at most 50 nM.

`CS(=O)(=O)N1CCC(Nc2ncc(C(F)(F)F)c(-c3cn(-c4ccc(CN5CCCC5)cc4C#N)cn3)n2)CC1` [Example 346, 2-(4-(2-((1-(Methylsulfonyl)piperidin-4-yl)amino)-5-(trifluoromethyl)pyrimidin-4-yl)-1H-imidazol-1-yl)-5-(pyrrolidin-1-ylmethyl)benzonitrile] gave an IC50 of at most 50 nM.

As to `CS(=O)(=O)N1CCC(Nc2ncc(C(F)(F)F)c(-c3cn(-c4c(F)cc(CNC5CC5)cc4F)cn3)n2)CC1` [Example 347, 4-(1-(4-((Cyclopropylamino)methyl)-2,6-difluorophenyl)-1H-imidazol-4-yl)-N-(1-(methylsulfonyl)piperidin-4-yl)-5-(trifluoromethyl)pyrimidin-2-amine], the IC50 was at most 50 nM.

Consider `CC(C)NCc1cc(F)c(-n2cnc(-c3nc(NC4CCN(S(C)(=O)=O)CC4)ncc3C(F)(F)F)c2)c(F)c1` [Example 348], for which the IC50 was at most 50 nM.

`CCNCc1cc(F)c(-n2cnc(-c3nc(NC4CCN(S(C)(=O)=O)CC4)ncc3C(F)(F)F)c2)c(F)c1` [Example 349, 4-(1-(4-((Ethylamino)methyl)-2,6-difluorophenyl)-1H-imidazol-4-yl)-N-(1-(methylsulfonyl)piperidin-4-yl)-5-(trifluoromethyl)pyrimidin-2-amine] came in with an IC50 of at most 50 nM.
